From publication PMC10764104, “Discovery of Molecular Glue Degraders via Isogenic Morphological Profiling” (ACS Chemical Biology, 2023)

Columns and labels:
RKO WT cells = details: method not stated for this control
Excerpt: Prior to screening the compound library in the isogenic CPA, we assessed their CRBN binding affinities using a fluorescence-polarization-based competition assay with recombinant DDB1-CRBN and the fluorescent tracer 16 (Figure S2). […] We also assessed the cytotoxicity of the CRBN binders in RKO wild-type (WT) cells to determine the appropriate treatment concentration.
Assessment of gene expression and essentiality in RKO WT
Public datasets on the transcriptome and essentiality of a protein‐encoding gene for RKO (cell line ID: ACH‐000943) were retrieved from DepMap Public 23Q2 (https://depmap.org/portal/, accessed on 14 August 2023). […]
Fluorescence Polarization‐based competition assay
Fluorescence Polarization assays were performed in 384‐well, Low Volume, Black, Round Bottom, Polystyrene Nonbinding surface Microplates (Corning, #4514). […] Fluorescence polarization values were determined with a PerkinElmer Envision reader with FITC FP dual mirror and FITC FP 480 excitation filter and FITC FP 535 emission filters. Fluorescence polarization values of a 10x serial dilution (10 nM to 100 µM) of the test compounds were determined in triplicates. EC50 values were calculated with GraphPad Prism software (version 10.0.2) with a non‐linear fit function (4PL sigmoidal curve fit) adjusting the bottom constrain to the FP value of free tracer. […]

GSPT2 G566N = molecular target: T1, GSPT2 G566N (Homo sapiens, UniProt Q8IYD1, G566N); test: Western blot (HA-tag) of G-loop mutant GSPT2 in RKO cells; format: cell-based; details: RKO cells stably overexpressing HA-GSPT2 G566N, 16 h; 10 μM FL2-14 or 10 nM CC-885
T1 construct: expressed in transfected cells; host or cells: RKO cells, lentiviral transduction, puromycin-selected
Procedure: Figure 3 FL2-14 is a selective GSPT2 molecular glue degrader. (A) Structure of FL2-14 comprising fluorosulfate scaffold FL2 (black) and tail group modification 14 (blue). (B) DMSO-normalized quantitative proteomics after 16 h of treatment with FL2-14 (10 μM) in RKO WT (n = 2). […] (C) Structural alignment of AlphaFold models of GSPT1 (AF-P15170-F1-model_v4 in gray) and GSPT2 (AF-Q8IYD1-F1-model_v4 in blue). (D) Validation of GSPT2 degradation by FL2-14. […] (E) Dose–response of FL2-14 in RKO and HEK293T cells. Cells were treated with the FL2-14 (0 to 10 μM) for 16 h. (F) Degradation of GSPT2^WT or GSPT2^G566N.
Prediction of the G‐loop degron sequence in GSPT2
We first compiled all CRBN degron sequences with known crystal structures (Table S 2). We subsequently discarded 6UML as its degron sequence included an alanine instead of the typical glycine observed in the seventh amino acid residue of other degron sequences, leaving six degron sequences. We then scanned the latest AlphaFold structure of GSPT215 for a potential stretch of 10 amino acids that would align best with each degron sequence. We yielded the same stretch of amino acid residues from position 560 to 569 ([…]) and RMSD values under 0.5 Å.
Table S 2: List of crystal structures used for the computational prediction of the G‐loop degron sequence […]
PDB code Resolution (Å) Chain Segment Sequence Reference
Analysis of G‐loop mutation […]

T1 sequence (Q8IYD1 whole entry G566N): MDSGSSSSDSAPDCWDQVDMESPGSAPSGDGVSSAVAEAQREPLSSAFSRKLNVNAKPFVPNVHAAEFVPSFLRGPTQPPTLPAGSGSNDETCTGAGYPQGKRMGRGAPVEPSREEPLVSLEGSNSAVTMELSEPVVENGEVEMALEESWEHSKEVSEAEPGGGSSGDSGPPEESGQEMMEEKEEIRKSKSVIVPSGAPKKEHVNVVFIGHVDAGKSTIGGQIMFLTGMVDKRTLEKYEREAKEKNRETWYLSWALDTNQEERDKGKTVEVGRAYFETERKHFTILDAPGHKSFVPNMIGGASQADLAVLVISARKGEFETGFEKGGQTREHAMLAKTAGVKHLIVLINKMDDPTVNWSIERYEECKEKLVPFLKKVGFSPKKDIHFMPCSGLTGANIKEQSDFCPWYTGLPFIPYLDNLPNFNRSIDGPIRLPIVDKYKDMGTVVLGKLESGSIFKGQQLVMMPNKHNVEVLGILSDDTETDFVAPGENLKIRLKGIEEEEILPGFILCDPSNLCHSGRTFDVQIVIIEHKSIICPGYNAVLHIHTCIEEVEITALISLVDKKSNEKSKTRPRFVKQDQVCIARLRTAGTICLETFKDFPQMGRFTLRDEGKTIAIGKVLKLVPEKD

| degradation of HA-tagged GSPT2 G566N (glycine of G-loop replaced by asparagine) (GSPT2 G566N) | Compound | cytotoxicity to RKO WT (RKO WT cells) |
| --- | --- | --- |
| – | Nc1cccc2c1C(=O)N(C1CCC(=O)NC1=O)C2=O (centres unmarked) [Pomalidomide, reference compound] | not cytotoxic |
| rescued degradation of GSPT2 | Cc1ccc(NC(=O)NCc2ccc3c(c2)CN(C2CCC(=O)NC2=O)C3=O)cc1Cl (centres unmarked) [CC-885, reference compound] | – |
